Laboratory results taken from patent publication US20020076827A1, “Methods for diagnosing thyroid conditions and for monitoring thyroxine therapy” (priority 2000, published 2002).

Legend:
[1] = in vivo; cited from earlier work
[2] = Stability of urine standard sub-pools measured monthly; format: physicochemical; conditions: 2 ml vials stored at -20 degrees Centigrade
Protocol: These sub-pools were aliquoted into 2 ml vials and stored as above.

[3] = Stability of urinary T3 for time and temperature; format: physicochemical
[4] = Conjugates of T4 and T3 in patients' urine by enzymatic hydrolysis and IMx measurement; parameters: species or system human
Protocol: Thyroxine glucuronidate in urine was hydrolysed with Sigma bacterial β-glucuronidase. The time interval for hydrolysis was tested from 1 to 24 hours under the conditions recommended by Sigma. It was also hydrolyzed by 0.2 N hydrochloric acid at pH 2 over a period of less than one hour.
Bacterial sulfatase (Sigma) was used as directed. […] To confirm our data, triodothyronine sulfate was synthesized by methods of Levitz (personal communication) for radioactive estrone glucuronide.

[5] = Stability of synthesized T3-sulfate; format: physicochemical; conditions: when not stored in liquid form in appropriate buffer
From the text: Bacterial sulfatase (Sigma) was used as directed. We found little evidence of the presence of thyroxine sulfate in urine in our preliminary studies but significant levels of triiodothyronine-sulfate were present. To confirm our data, triodothyronine sulfate was synthesized by methods of Levitz (personal communication) for radioactive estrone glucuronide. T3-sulfate gave a unique spectrum with a major absorption maximum at 362 nm as compared to triiodothyronine whose major absorption maxima occurred at 318.

[6] = stored with at least 20% (v/v) of buffer

For `N[C@@H](Cc1ccc(Oc2cc(I)c(O)c(I)c2)c(I)c1)C(=O)O` [RT3], the metabolic clearance rate [1] is listed as 111 L/d/70 kg.
For `N[C@@H](Cc1cc(I)c(Oc2ccc(O)c(I)c2)c(I)c1)C(=O)O` [T3, O-(4-hydroxy-3-iodophenyl)-3,5-diiodo-L-tyrosine], the “concentration in urine standard sub-pools over time” value [2] was “unchanged for over a year”, the “stability of T3 standards” value ([3]; all conditions of time and temperature) was “stable under all conditions” and the “stability of urinary T3, frozen state” value [3, 6] was “stable for months”. For the same molecule, the “stability of urinary T3, room temperature” value [3, 6] was “over 3 days”, the “stability of urinary T3, native state” value ([3]; without buffer, frozen and room temperature) was “deteriorated in both environments at an accelerated rate” and the metabolic clearance rate [1] was 24 L/d/70 kg.
With `N[C@@H](Cc1cc(I)c(Oc2ccc(OS(=O)(=O)O)c(I)c2)c(I)c1)C(=O)O` [T3-sulfate, triiodothyronine-sulfate] the “urinary concentration of conjugate relative to parent compound” value ([4]; human urine, before and after hydrolysis) was “about one-third to one-half” and the “stability of T3-sulfate” value [5] was “unstable and rapidly deteriorated”.
In the case of `NC(Cc1cc(I)c(Oc2cc(I)c(O)c(I)c2)c(I)c1)C(=O)O` (centres unmarked) [T4, O-(4-hydroxy-3,5-didiodophenyl)-3,5-diiodotyrosine], the “form of conjugation in urine” value [4] is given as “almost exclusively as a glucuronide” and the metabolic clearance rate [1] is given as 1.2 L/d/70 kg.
